Experimental data: patent publication US12168678B2, “Heme sequesting peptides and uses therefor” (Board of Regents, The University of Texas System, priority 2019, dated 2024)
Structures can show the parent of a compound that is named as a salt.

How the values were obtained:
A549 cells = assay: Colony formation assay; type: cell-based, human; conditions: for effect of heme addition on colony formation: 10 μM heme add-back; for effect of iron addition on colony formation: 50 μM ferric chloride; for colony formation: 6 days, 0.5 mM succinyl acetone, 10 μM HSPs, 50 μM DFX, 10 μM SnPP
Experimental: (§1) Cell proliferation was measured by detecting the luciferase activity in live cells and by using a hemocytometer. Cell migration and invasion assays were carried out with BD Falcon cell culture inserts (Corning Life Sciences) and the manufacturer's cell migration, chemotaxis, and invasion assay protocols. For the colony formation assay, 5000 NSCLC cells were seeded in every well in 6-well tissue culture plates in triplicates. Cells were treated with 0.5 mM succinyl acetone (Sigma Aldrich), 10 μM HSPs, 50 μM deferoxamine mesylate (DFX), 10 μM zinc (II) protoporphyrin IX, 10 μM tin (IV) protoporphyrin IX, or 50 μM ferric chloride for 6 days. For heme add-back experiments, 10 μM heme was included. Medium was changed every 3 days. After 6 days of treatment, cells were fixed with 70% ethanol and stained with 0.5% crystal violet. Images were acquired by using Carestream Gel Logic GL-112 imaging system.

H1299 cells = assay: Colony formation assay; type: cell-based, human; conditions: for effect of heme addition on colony formation: 10 μM heme add-back; for effect of iron addition on colony formation: 50 μM ferric chloride; for colony formation: 6 days, 0.5 mM succinyl acetone, 10 μM HSPs, 50 μM DFX, 10 μM SnPP
Experimental: as §1

A549 NSCLC cells [1] = assay: Cell migration assay (Transwell inserts); type: cell-based, human; conditions: 10 μM heme
Experimental: as §1

H1299 NSCLC cells [2] = assay: Cell migration assay (Transwell inserts); type: cell-based, human; conditions: heme add-back 10 μM, b23 prints 10 mM
Experimental: as §1

H1299 NSCLC cells [3] = assay: Cell invasion assay (Matrigel invasion chambers); type: cell-based, human; conditions: heme add-back 10 μM, b23 prints 10 mM
A549 NSCLC cells [4] = assay: Cell invasion assay (Matrigel invasion chambers); type: cell-based, human; conditions: 10 μM heme
[5] = tested on: H1299 NSCLC lung tumor xenografts; type: in vivo; conditions: SA 50 mg/kg I.V. every 3 days, from 4 days after implantation
[6] = tested on: 5-aminolevulic synthase (ALAS1); conditions: previous studies, non-erythroid cells; cited from earlier work
[7] = references 55, 56; cited from earlier work
heme oxygenases = conditions: reference 51; cited from earlier work

Compound | effect of heme addition on colony formation (A549 cells) | effect of iron addition on colony formation (A549 cells) | colony formation (A549 cells) | effect of heme addition on colony formation (H1299 cells) | effect of iron addition on colony formation (H1299 cells) | colony formation (H1299 cells) | effect of heme addition on reduced migration (A549 NSCLC cells [1]) | effect of heme addition on reduced migration (H1299 NSCLC cells [2]) | effect of heme addition on reduced invasion (H1299 NSCLC cells [3]) | effect of heme addition on reduced invasion (A549 NSCLC cells [4]) | suppression of lung tumors (BLI) [5] | inhibition of heme biosynthesis [6] | toxicity to animals [7] | inhibition of the activities of heme oxygenases (heme oxygenases)
CC(=O)N(O)CCCCCNC(=O)CCC(=O)N(O)CCCCCNC(=O)CCC(=O)N(O)CCCCCN [DFX, Deferoxamine mesylate] | partially reversed | largely reversed | reduced colony formation | partially reversed | largely reversed | reduced colony formation | – | – | – | – | – | – | – | –
CC(=O)CC(=O)CCC(=O)O [succinyl acetone, Succinyl acetone] | largely reversed | did not reverse | strongly suppressed colony formation | largely reversed | did not reverse | strongly suppressed colony formation | largely reversed | largely reversed | largely reversed | largely reversed | not very effective | effective inhibitor | low toxicity | –
Tin (IV) protoporphyrin [SnPP] | – | – | appeared to reduce colony formation | – | – | appeared to reduce colony formation | – | – | – | – | – | – | – | strong inhibitor
